# Values joined by “and” are separate entries in the source; they are usually repeats but may differ in a detail not shown here. Identical values can stand only once.
# Assays:
# [1] = tested on: murine fibroblast line L929; assay: 3D (DNA Damage Detection) test after H2O2 stress; format: cell-based; details: 3 μg/ml, L929 pre-treated 16 hours, H2O2 100 μM 30 minutes; for % DNA protection: basal control 100%, H2O2 stressed 0%
# From the text: They decided to generate the lesions to DNA by means of H2O2 stress and to analyze indirectly the damage thereby caused, by analyzing the repair reaction. For that purpose, a kit referred to as the 3D (standing for “DNA Damage Detection”) test was used. This biochemical test mimics, in vitro, the repair reaction by means of excision (Salles B. et al Anal. Biochem. 1995; 232: 37-42 and Salles B. et al Biochimie 1999; 81: 53-58). The 3D test is based on the repairing of DNA lesions using purified human cell extracts.
# The products were assessed using the murine fibroblast line L929. The cells are pre-treated with the products (Table III) for 16 hours and are then stimulated with H2O2 (Hydrogen Peroxide 3%—Ref. GIFRER—Laboratoire Gifrer Barbezat) at 100 μM for 30 minutes.
# The principle is as follows: After damaging the genomic DNA (oxidative treatment), the cells are lysed. The lysate is deposited on a microplate coated with polylysine: • 1—Adsorption of the DNA • 2—Incubation of the DNA with a protein extract (enriched with repair enzymes) and a pool of nucleotides wherein one nucleotide is labeled with biotin (dUTP-Biotin)—Repair of the lesions and incorporation of the “dUTP-Biotin” labeled nucleotides in the DNA. • 3—Incubation with an “Avidin-Peroxidase” enzyme complex—Recognition by the avidin of the incorporated dUTP-Biotin. • 4—Addition of a luminescent peroxidase substrate and quantification of the emitted signal, which is proportional to the number of repaired lesions.
# The test performance protocol is followed in accordance with the instructions of the kit supplier (Solyscel 3D Test—Ref: SFRIDN013— AES Laboratoire). At the end of the reaction, the plate is read in a luminometer (MITHRAS LB940-BERTHOLD).
# The ratio below allows the percentage protection against the causation of lesions to DNA by oxidative stress to be calculated for each concentration of product tested (the Intensity of Luminescence—or IL—is an expression of the quantity of DNA lesions).
# The values indicated in this Table are percentages of inhibition (or % protection) of lesions to DNA following exogenous oxidative stress, compared to “basal control” cells (100%) and “H2O2 stressed” cells (0%).
# [2] = tested on: murine fibroblast line L929; assay: TBARS test: lipid peroxidation after H2O2-Fe2+/Fe3+ stress; format: cell-based; details: L929 pre-treated 16 hours, H2O2-Fe2+/Fe3+ 1 hour
# Description: In order to assess membrane degradation, the authors of the invention have measured lipid peroxidation by means of an in vitro assay of complexes formed between the products of lipid oxidation and thiobarbituric acid. These complexes are called TBARS (standing for “Thiobarbituric Acid Reactive Substances”) and give their name to the test: the TBARS Test.
# In order to mimic chemical oxidative stress, the fibroblast line L929 was treated with a complex composed of hydrogen peroxide (H2O2) and iron (Fe^2+/Fe^3+), accordingly reproducing Fenton's reaction, a source of OFRs and, more particularly, the free hydroxyl radical (OH^∘) (Vessey D. A. et al J. Invest Dermatol. 1992; 99: 859-63): H2O2+Fe^2+→OH^∘+OH^−+Fe^3+.
# The products were assessed using the murine fibroblast line L929. The cells are pre-treated with the various concentrations of products (Table I) for 16 hours and then stimulated with the H2O2—Fe^2+/Fe^3+ complex for 1 hour. The LK0304 batch of unsaponifiable extract of pulp of fruit of the argan tree was prepared in accordance with Example 2.
# The peroxidation of membrane lipids is analyzed by TBARS measurement (according to Morliére P. et al Biochim. Biophys. Acta. 1991; 1084: 261-268).
# In an acid medium, at 95° C., complexes referred to as TBARS (standing for “ThioBarbituric Acid Reactive Substances”) are formed between the lipid oxidation products (malondialdehyde or MDA) and thiobarbituric acid (TBA), which can be fluorescence-assayed relative to a MDA standard series. The TBARS assay value is then expressed in pmol/μg of proteins. The proteins and TBARS are assayed in the intracellular medium.
# Starting from the calculation of the TBARS in pmol/μg of proteins, the protective efficacy of the various products against oxidation of the lipid membranes was calculated as follows.
# [3] = at a dose lower than the triterpene fraction A devoid of erythrodiol; cited from earlier work
# [4] = compared to the triterpene fraction; cited from earlier work
Compound,% lesions to DNA [1] [%],Intensity of luminescence [1],% DNA protection [1] [%],Protection of membrane lipids in % Mean ([2]; 400 μg/ml-928.7 μM) [%],"Protection of membrane lipids in % Mean ([2]; 400 μg/ml-928.7 μM, listed as Vitamin E)",% DNA protection ([1]; listed as erythrodiol),Toxicity [3],Protection of membrane lipids in % Mean ([2]; 0.3 μg/ml),Protection of membrane lipids in % Mean ([2]; 1 μg/ml) [%],Benefit with respect to UVA and UVB [4]
CC1(C)CC[C@]2(C)CC[C@]3(C)C(=CC[C@@H]4[C@@]5(C)CC[C@H](O)C(C)(C)[C@@H]5CC[C@]43C)[C@@H]2C1 [β-Amyrine],125.4,13133.3,−25.4,–,–,–,–,–,–,–
C=C(C)[C@@H]1CC[C@]2(C)CC[C@]3(C)[C@H](CC[C@@H]4[C@@]5(C)CC[C@H](O)C(C)(C)[C@@H]5CC[C@]43C)[C@@H]12 [Lupeol],58.2,9020,41.8,–,–,–,–,–,–,–
Vitamin E [Vit E],–,–,–,56.62,about 56%,–,–,–,–,–
C[C@H]1[C@H](C)CC[C@]2(C)CC[C@]3(C)C(=CC[C@@H]4[C@@]5(C)CC[C@H](O)C(C)(C)[C@@H]5CC[C@]43C)[C@H]12 [α-Amyrine],52.4,8663.3,47.6,–,–,–,–,–,–,–
CC1(C)CC[C@]2(CO)CC[C@]3(C)C(=CC[C@@H]4[C@@]5(C)CC[C@H](O)C(C)(C)[C@@H]5CC[C@]43C)[C@@H]2C1 [Erythrodiol],1,5520,99,–,–,the most active,toxic,33% and 33.75%,38.43,only mediocre benefit

# From patent US20090012049A1, “Use of an Unsaponifiable Extract of Plant Pulp in the Treatment of Skin Ageing” (priority 2006, published 2009)
